Experimental data reported in ChEMBL document CHEMBL4507268 (2021).

Legend:
[1] = molecular target: Serine/threonine-protein kinase MARK1 (Homo sapiens) (UniProt Q9P0L2); conditions: Compound concentration 1000.0 nM
[2] = molecular target: T1, Dual specificity mitogen-activated protein kinase kinase 6 (Homo sapiens) (UniProt P52564); conditions: Compound concentration 1000.0 nM
T1 sequence (whole entry): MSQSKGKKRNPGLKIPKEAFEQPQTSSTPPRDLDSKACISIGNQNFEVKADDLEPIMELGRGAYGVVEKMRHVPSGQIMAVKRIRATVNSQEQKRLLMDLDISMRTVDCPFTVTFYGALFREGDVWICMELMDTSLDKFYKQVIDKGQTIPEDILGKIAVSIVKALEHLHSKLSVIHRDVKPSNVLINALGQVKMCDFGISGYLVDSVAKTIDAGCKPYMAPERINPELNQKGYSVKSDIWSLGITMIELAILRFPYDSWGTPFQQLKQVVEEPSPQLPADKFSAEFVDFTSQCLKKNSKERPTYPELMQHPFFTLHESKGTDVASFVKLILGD

[3] = molecular target: Atypical kinase COQ8A, mitochondrial (Homo sapiens) (UniProt Q8NI60); conditions: Compound concentration 1000.0 nM
[4] = molecular target: Peripheral plasma membrane protein CASK (Homo sapiens) (UniProt O14936); conditions: Compound concentration 1000.0 nM
[5] = molecular target: Phosphatidylinositol 4-phosphate 5-kinase type-1 gamma (Homo sapiens) (UniProt O60331); conditions: Compound concentration 1000.0 nM
[6] = tested on: Tyrosine-protein kinase ABL1 (Homo sapiens), P00519 [F317L]; conditions: Compound concentration 1000.0 nM
[7] = molecular target: T2, Serine/threonine-protein kinase Sgk2 (Homo sapiens) (UniProt Q9HBY8); conditions: Compound concentration 1000.0 nM
T2 sequence (whole entry): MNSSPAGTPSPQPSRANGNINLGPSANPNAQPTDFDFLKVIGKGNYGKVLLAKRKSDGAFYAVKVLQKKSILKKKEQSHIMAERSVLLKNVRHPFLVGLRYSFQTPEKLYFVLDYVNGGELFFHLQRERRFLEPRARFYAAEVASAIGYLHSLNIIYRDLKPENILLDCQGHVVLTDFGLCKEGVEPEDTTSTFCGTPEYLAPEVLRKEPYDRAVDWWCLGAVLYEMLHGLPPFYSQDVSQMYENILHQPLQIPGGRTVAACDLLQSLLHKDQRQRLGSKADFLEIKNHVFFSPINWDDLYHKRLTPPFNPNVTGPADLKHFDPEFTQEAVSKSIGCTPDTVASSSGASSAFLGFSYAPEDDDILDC

[8] = molecular target: Insulin-like growth factor 1 receptor (Homo sapiens) (UniProt P08069); conditions: Compound concentration 1000.0 nM
[9] = molecular target: Tyrosine-protein kinase ABL1 (Homo sapiens) (UniProt P00519); conditions: Compound concentration 1000.0 nM
[10] = molecular target: Receptor tyrosine-protein kinase erbB-3 (Homo sapiens) (UniProt P21860); conditions: Compound concentration 1000.0 nM
[11] = molecular target: Mitogen-activated protein kinase kinase kinase 20 (Homo sapiens) (UniProt Q9NYL2); conditions: Compound concentration 1000.0 nM
[12] = molecular target: T3, Protein kinase C iota type (Homo sapiens) (UniProt P41743); conditions: Compound concentration 1000.0 nM
T3 sequence (whole entry): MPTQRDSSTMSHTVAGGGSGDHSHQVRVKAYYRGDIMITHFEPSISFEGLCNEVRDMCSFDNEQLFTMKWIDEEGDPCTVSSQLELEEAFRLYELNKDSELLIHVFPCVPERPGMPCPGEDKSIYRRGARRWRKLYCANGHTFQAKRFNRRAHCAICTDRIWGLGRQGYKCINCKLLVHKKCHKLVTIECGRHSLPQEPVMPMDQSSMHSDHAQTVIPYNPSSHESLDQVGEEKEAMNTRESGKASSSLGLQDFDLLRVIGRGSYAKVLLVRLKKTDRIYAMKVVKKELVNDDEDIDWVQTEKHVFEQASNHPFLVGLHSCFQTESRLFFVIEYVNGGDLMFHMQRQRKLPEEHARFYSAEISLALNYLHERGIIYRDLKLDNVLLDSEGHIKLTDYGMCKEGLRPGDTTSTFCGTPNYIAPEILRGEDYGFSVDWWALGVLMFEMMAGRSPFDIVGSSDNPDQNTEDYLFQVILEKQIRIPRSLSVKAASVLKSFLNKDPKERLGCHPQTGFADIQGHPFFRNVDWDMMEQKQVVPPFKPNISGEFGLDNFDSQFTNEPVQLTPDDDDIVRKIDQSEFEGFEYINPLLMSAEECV

[13] = molecular target: T4, Serine/threonine-protein kinase ICK (Homo sapiens) (UniProt Q9UPZ9); conditions: Compound concentration 1000.0 nM
T4 sequence (whole entry): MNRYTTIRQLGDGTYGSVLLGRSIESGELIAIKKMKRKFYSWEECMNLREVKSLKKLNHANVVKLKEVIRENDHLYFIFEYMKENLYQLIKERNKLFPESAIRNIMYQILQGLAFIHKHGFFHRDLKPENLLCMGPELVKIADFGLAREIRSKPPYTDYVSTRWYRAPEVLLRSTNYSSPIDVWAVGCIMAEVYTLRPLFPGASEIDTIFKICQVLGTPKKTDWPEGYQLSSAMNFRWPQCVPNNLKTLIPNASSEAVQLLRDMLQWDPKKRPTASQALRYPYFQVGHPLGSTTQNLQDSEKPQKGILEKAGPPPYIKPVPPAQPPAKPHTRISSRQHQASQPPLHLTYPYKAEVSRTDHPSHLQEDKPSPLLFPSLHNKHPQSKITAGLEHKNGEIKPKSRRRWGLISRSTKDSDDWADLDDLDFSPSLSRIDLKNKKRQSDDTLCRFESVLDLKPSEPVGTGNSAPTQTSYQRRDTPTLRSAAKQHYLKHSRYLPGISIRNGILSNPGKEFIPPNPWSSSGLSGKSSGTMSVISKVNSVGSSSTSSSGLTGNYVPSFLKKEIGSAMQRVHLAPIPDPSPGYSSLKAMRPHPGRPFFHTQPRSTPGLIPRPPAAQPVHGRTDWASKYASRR

[14] = molecular target: Muscarinic acetylcholine receptor M1 (Homo sapiens) (UniProt P11229); conditions: Compound concentration 10.0 uM
[15] = molecular target: Tyrosine-protein kinase ABL1 (Homo sapiens) (UniProt P00519); conditions: Compound concentration 1000.0 nM; remark: listed apart in the source
[16] = molecular target: Mast/stem cell growth factor receptor Kit (Homo sapiens) (UniProt P10721); conditions: Compound concentration 1000.0 nM
[17] = molecular target: Casein kinase I isoform epsilon (Homo sapiens) (UniProt P49674); conditions: Compound concentration 1000.0 nM
[18] = molecular target: Eukaryotic translation initiation factor 2-alpha kinase 1 (Homo sapiens) (UniProt Q9BQI3); conditions: Compound concentration 1000.0 nM
[19] = molecular target: Tyrosine-protein kinase Yes (Homo sapiens) (UniProt P07947); conditions: Compound concentration 1000.0 nM
Sequence of Tyrosine-protein kinase Yes (Homo sapiens) (P07947 2-543 limits assumed): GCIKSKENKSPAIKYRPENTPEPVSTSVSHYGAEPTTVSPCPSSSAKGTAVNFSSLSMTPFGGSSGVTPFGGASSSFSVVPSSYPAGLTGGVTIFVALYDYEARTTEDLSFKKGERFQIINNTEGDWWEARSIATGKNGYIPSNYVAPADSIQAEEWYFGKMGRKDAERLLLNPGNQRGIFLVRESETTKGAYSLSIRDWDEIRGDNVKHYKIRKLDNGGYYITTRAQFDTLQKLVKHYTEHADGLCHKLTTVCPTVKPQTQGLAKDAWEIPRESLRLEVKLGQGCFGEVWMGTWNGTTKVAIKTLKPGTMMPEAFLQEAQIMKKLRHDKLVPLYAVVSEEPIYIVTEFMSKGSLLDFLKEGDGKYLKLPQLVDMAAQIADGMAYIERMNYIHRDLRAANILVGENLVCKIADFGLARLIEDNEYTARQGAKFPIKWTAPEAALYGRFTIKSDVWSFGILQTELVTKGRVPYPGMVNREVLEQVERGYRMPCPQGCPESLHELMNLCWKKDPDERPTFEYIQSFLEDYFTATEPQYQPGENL

Sequence of Tyrosine-protein kinase ABL1 (Homo sapiens) (P00519 whole entry): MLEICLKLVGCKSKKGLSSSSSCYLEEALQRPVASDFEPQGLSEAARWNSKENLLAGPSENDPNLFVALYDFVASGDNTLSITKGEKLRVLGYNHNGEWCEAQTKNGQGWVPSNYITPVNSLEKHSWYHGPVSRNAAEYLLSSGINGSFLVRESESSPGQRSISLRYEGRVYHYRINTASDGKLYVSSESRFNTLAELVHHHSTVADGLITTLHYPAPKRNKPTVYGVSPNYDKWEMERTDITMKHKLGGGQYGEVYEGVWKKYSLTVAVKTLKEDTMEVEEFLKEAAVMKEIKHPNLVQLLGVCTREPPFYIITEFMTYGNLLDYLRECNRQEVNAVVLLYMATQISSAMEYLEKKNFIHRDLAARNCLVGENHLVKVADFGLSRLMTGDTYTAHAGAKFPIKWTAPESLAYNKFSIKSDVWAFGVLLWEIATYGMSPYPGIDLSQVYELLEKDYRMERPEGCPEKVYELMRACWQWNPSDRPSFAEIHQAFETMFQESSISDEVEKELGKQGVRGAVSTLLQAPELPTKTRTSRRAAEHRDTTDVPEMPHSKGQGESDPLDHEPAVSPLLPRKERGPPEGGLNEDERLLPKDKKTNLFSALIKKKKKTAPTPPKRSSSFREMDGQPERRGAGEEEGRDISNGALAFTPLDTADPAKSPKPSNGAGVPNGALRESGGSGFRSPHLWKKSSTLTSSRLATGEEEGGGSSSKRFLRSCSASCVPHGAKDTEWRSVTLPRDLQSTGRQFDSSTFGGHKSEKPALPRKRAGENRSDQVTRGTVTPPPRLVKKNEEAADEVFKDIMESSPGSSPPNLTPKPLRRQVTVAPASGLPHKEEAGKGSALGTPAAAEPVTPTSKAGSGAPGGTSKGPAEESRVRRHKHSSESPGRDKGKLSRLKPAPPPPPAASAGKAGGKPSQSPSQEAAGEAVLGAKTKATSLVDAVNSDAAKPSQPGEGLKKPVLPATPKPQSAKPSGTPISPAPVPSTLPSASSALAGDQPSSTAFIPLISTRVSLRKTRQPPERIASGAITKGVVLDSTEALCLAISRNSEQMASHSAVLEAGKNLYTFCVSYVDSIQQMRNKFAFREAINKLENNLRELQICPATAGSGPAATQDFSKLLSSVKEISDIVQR
Sequence of Eukaryotic translation initiation factor 2-alpha kinase 1 (Homo sapiens) (Q9BQI3 whole entry): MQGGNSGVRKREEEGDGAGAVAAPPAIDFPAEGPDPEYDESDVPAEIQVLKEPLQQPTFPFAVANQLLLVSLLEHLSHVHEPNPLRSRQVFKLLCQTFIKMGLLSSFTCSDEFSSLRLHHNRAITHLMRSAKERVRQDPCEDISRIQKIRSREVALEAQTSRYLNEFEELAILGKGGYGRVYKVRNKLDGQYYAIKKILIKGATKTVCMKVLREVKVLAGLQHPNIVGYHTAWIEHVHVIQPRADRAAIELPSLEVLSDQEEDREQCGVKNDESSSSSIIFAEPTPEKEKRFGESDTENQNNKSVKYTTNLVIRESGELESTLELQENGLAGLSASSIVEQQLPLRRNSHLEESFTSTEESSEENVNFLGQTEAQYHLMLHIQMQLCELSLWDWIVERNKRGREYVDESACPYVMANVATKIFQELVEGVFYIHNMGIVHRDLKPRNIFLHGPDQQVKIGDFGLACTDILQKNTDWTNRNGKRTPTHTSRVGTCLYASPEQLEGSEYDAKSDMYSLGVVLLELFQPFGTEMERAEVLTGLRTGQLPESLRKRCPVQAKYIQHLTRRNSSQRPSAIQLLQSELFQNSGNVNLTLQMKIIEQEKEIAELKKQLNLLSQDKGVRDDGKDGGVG
Sequence of Insulin-like growth factor 1 receptor (Homo sapiens) (P08069 31-736 limits assumed): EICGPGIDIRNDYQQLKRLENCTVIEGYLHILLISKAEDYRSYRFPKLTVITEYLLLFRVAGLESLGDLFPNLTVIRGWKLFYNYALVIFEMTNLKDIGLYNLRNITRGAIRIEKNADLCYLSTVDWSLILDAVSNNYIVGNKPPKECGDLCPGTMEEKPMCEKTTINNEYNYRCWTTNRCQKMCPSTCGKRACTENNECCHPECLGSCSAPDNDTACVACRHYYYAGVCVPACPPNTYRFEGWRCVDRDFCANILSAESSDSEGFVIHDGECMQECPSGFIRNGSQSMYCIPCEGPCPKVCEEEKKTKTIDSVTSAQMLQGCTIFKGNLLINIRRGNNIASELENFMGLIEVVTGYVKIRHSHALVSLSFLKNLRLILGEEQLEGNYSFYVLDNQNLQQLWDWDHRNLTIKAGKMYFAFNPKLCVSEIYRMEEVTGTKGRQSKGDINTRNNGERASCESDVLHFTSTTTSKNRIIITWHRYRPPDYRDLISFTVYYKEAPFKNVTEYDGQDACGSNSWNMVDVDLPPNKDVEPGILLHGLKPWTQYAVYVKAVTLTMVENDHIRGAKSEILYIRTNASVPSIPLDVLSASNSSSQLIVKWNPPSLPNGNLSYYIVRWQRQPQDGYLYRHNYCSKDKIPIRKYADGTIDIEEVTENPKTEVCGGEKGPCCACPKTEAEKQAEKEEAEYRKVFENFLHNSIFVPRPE
Sequence of Insulin-like growth factor 1 receptor (Homo sapiens) (P08069 741-1367 limits assumed): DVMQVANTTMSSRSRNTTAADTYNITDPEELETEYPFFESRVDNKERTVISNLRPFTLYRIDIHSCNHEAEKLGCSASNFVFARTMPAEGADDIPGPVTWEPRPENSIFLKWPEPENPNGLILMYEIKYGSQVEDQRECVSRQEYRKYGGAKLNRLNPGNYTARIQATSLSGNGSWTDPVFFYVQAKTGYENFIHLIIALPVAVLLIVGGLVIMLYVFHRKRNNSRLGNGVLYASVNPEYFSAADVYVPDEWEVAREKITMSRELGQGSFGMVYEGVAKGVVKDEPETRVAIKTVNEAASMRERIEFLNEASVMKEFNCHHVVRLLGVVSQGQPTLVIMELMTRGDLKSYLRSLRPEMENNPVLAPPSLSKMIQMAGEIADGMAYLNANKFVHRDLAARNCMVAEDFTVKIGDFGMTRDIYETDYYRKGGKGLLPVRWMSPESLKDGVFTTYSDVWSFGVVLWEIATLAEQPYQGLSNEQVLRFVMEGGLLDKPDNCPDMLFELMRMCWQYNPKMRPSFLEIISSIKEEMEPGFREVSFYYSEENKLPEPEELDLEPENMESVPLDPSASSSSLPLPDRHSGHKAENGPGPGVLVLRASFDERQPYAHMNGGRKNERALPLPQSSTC
Sequence of Receptor tyrosine-protein kinase erbB-3 (Homo sapiens) (P21860 whole entry): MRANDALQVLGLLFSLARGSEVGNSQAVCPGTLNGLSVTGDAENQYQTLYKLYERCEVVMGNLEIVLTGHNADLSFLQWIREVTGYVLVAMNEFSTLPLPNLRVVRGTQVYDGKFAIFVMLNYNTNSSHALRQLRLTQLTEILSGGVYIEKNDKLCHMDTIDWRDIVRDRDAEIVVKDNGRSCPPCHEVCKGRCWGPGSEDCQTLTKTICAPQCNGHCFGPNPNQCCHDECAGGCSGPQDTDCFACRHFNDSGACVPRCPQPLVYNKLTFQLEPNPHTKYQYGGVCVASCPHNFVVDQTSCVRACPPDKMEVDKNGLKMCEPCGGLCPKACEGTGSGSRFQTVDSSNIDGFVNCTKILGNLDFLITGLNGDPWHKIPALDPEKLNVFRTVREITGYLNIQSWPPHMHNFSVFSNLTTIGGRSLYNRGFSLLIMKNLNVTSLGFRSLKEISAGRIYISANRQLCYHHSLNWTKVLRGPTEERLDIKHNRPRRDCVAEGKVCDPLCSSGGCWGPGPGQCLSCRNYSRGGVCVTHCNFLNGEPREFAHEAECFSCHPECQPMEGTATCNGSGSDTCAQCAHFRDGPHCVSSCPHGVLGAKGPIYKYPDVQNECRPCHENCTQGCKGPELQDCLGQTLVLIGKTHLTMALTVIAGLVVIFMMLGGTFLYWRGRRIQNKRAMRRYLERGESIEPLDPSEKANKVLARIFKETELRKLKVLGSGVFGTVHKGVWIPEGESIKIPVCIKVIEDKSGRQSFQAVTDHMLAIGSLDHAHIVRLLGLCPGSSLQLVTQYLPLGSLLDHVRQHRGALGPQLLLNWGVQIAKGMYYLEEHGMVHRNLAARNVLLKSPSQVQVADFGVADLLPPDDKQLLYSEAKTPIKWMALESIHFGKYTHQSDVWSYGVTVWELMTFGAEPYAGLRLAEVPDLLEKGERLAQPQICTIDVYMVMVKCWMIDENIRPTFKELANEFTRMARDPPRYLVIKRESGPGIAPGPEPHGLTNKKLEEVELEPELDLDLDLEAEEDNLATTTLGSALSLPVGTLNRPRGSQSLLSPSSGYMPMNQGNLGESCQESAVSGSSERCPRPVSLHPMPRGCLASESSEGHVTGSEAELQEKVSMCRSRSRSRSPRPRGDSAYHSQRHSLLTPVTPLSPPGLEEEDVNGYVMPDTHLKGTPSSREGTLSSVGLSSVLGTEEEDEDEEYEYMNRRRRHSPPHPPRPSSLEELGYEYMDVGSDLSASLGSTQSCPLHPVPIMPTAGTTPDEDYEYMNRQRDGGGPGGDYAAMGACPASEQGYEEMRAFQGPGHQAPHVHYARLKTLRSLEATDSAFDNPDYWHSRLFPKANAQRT
Sequence of Tyrosine-protein kinase ABL1 (Homo sapiens), P00519 [F317L] (P00519 whole entry F317L): as the sequence (P00519 whole entry) above, with F317L counted along it

Cc1nc(C2CCN(C(=O)c3ccc(OC(F)(F)F)cc3N)CC2)c2ncc(N3CCN(C)CC3)cc2n1 [BAY-693]
inactive: residual activity [1] 100% | residual activity [2] 97% | residual activity [3] 100% | residual activity [4] 87% | residual activity [5] 94% | residual activity [6] 96% | residual activity [7] 94% | residual activity [8] 91% | residual activity [9] 92% | residual activity [10] 88% | residual activity [11] 95% | residual activity [12] 81% | residual activity [13] 84% | inhibition [14] 2.76% | residual activity [15] 92% | residual activity [16] 76% | residual activity [17] 100% | residual activity [18] 85% | residual activity [19] 100%

CN1CCN(c2cnc3c(C4CCN(C(=O)c5ccc(OC(F)(F)F)cc5N)CC4)ncnc3c2)CC1 [BAY-885]
inactive: residual activity [1] 100% | residual activity [2] 88% | residual activity [3] 100% | residual activity [4] 89% | residual activity [5] 100% | residual activity [6] 100% | residual activity [7] 92% | residual activity [8] 100% | residual activity [9] 86% | residual activity [10] 84% | residual activity [11] 98% | residual activity [12] 77% | residual activity [13] 100% | inhibition [14] 3.17% | residual activity [15] 91% | residual activity [16] 85% | residual activity [17] 100% | residual activity [18] 100% | residual activity [19] 100%
